The target in series [1] is Epidermal growth factor receptor (Homo sapiens, UniProt P00533). Kind of series: Inhibition of EGFR (unknown origin) expressed in baculovirus system using fluorescein labeled PDGFR-tide substrate peptide preincubated for 60 mins followed by ATP addition and measured after 60 mins by IMAP assay.
Series [2] is described as follows: Inhibition of anti-human alphaIgM-stimulated MIP1beta production in human Ramos B cells preincubated for 1 hr followed by anti-human IgM stimulation for 6 hrs by ELISA. It counts as functional, cell-based. (ELISA stands for enzyme-linked immunosorbent assay.)
Series [3] deals with T1, Tyrosine-protein kinase BTK (Homo sapiens, UniProt Q06187). The series can be described thus: Inhibition of human recombinant full length N-terminal His6-tagged BTK expressed in baculovirus infected Sf9 cells using fluorescein labeled Blk/Lyntide substrate preincubated with enzyme for 60 mins followed by further incubation with substrate and ATP for 120 mins by IMAP assay.

For series [4], the system named is Blood. The series can be described thus: Inhibition of mouse anti-human anti-IgD-stimulated CD69 cell surface expression in human whole blood preincubated for 2 hrs followed by anti-human anti-IgD stimulation for 18 hrs by flow cytometric analysis. It counts as functional, tissue-based. A general note: A flow cytometer gives signals particle by particle.
Series [5] can be described thus: Inhibition of goat anti-human IgM F(ab')-stimulated CD69 cell surface expression in human PBMC preincubated for 2 hrs followed by anti-human IgM stimulation for 18 hrs by flow cytometric analysis. The format is functional, tissue-based.
The species named for series [6] is Homo sapiens. The series can be described thus: Selectivity index, ratio of IC50 for EGFR (unknown origin) expressed in baculovirus system to IC50 for human recombinant full length N-terminal His6-tagged BTK expressed in baculovirus infected Sf9 cells.
Series [7] in a line: In vivo inhibition of CD69 expression in po dosed mouse. It counts as functional.
Series [8] concerns the target Tyrosine-protein kinase Blk (Homo sapiens, UniProt P51451). Kind of series: Inhibition of recombinant full length human His-tagged BLK cytoplasmic domain expressed in baculovirus expression system using tyrosine-1 peptide as substrate preincubated for 1 hr in presence of ATP by Z'-LYTE assay.
Series [9] has as its target T1, Tyrosine-protein kinase BTK. The series can be described thus: Covalent inhibition of His-tagged human full length recombinant BTK expressed in baculovirus expression system incubated for 5 to 120 mins by Lanthascreen TR-FRET assay. The note with it: time min 5-120, TDE = time-dependent effect. On the technique in general: Time-resolved FRET reads energy transfer from a long-lived donor to a nearby acceptor.

Series [10] in a line: Solubility of compound by turbidimetric assay. The format is physicochemical.

Chain of Epidermal growth factor receptor (P00533 whole entry): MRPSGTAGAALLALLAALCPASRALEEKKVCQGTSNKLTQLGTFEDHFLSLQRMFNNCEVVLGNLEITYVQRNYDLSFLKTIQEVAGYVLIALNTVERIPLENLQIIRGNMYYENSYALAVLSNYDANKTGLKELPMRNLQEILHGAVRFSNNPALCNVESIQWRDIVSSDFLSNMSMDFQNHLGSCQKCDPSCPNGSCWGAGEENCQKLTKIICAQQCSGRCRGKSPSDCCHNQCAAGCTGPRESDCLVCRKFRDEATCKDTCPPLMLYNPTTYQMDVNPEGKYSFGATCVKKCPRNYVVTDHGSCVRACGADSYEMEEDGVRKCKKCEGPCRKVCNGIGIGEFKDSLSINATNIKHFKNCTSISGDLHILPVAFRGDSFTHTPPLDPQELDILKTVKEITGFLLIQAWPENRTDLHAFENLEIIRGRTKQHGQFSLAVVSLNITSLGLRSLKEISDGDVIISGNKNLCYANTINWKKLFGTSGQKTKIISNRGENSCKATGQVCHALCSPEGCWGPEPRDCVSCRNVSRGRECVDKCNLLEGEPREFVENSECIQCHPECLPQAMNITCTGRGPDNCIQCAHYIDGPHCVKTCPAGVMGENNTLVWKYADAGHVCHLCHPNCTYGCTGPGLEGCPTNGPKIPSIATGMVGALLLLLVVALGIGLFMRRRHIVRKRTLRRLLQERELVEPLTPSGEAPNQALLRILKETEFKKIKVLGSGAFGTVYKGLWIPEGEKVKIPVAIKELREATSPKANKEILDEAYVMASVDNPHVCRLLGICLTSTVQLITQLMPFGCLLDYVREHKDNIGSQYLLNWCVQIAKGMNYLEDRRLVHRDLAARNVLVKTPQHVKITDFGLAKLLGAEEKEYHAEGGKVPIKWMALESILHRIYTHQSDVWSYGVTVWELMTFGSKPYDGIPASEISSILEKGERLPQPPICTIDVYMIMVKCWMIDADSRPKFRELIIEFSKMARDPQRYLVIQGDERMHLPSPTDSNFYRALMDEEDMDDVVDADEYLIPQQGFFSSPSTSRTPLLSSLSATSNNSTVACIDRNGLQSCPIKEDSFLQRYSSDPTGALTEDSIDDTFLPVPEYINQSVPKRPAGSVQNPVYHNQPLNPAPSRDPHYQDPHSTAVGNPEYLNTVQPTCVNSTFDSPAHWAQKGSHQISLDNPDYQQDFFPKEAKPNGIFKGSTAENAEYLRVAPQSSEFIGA
T1 sequence (Q06187 whole entry): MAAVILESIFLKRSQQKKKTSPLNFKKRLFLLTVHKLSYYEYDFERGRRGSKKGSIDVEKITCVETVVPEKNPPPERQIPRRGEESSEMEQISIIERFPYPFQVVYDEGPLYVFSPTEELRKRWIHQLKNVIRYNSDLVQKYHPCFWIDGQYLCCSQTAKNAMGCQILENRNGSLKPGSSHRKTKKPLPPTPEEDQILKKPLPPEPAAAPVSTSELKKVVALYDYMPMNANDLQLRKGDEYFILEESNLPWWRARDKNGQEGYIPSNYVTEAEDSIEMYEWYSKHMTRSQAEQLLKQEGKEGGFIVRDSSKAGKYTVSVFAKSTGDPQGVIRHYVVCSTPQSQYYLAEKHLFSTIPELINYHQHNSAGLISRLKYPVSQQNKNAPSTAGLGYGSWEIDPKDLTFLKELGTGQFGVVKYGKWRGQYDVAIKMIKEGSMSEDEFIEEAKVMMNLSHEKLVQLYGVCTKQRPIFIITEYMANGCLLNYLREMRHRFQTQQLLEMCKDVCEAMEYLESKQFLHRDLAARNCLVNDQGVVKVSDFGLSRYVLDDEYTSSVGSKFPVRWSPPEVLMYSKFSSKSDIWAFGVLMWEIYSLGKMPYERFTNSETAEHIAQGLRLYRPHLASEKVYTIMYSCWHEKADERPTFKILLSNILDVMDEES
Chain of Tyrosine-protein kinase Blk (P51451 whole entry, the tested form may be a part): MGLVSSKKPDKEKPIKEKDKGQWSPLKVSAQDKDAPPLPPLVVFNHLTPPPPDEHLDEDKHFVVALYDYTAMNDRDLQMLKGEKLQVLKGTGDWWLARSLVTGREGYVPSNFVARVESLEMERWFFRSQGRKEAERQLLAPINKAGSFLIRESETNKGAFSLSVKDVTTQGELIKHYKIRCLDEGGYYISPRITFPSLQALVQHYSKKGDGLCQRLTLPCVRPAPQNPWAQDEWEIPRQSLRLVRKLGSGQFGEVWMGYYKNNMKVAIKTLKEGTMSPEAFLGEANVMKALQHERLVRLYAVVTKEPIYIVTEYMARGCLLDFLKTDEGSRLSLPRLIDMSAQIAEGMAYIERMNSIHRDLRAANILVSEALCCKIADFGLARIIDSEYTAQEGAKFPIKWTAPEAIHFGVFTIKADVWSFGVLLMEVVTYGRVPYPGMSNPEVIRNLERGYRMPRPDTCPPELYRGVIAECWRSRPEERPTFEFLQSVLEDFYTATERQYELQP

A word on the IC50: it is the midpoint of a concentration-inhibition curve. Usually EC50 stands for the concentration at which the effect is half-maximal. For the compound `COCC#CC(=O)Nc1cc2c(Oc3ccc(C(=O)Nc4ccccn4)cc3)ccnc2cc1OC`, the IC50 in series [1] is 12 nM; in series [3], 0.96 nM. Further, in [2], the response was half-maximal at 12 nM (EC50).
Regarding `CC#CC(=O)Nc1cc2c(Oc3ccc(C(=O)Nc4ccccn4)cc3)ccnc2cc1OCCCN1CCN(C)CC1`, the IC50 was 233 nM in [1] and 1 nM in [3]. The figures for the EC50 in series [2], in series [4] and in series [5] were 3.9 nM, 35 nM and 2.1 nM, respectively.
Turning to `O=C(C#CCN1CCOCC1)Nc1ccc2nccc(Oc3ccc(C(=O)Nc4ccccn4)cc3)c2c1`, the IC50 in series [1] was 13 nM; in [3], 0.26 nM. Further, in series [2], the EC50 was 12 nM.
On to `CC#CC(=O)Nc1cc2c(Oc3ccc(C(=O)Nc4ccccn4)cc3)ccnc2cc1OC`, for which the IC50 in [1] was above 1000 nM; in series [3], 1.5 nM. For the same compound, the EC50 is 29 nM in [2], 66 nM in [4] and 9.7 nM in series [5].
With `CN(C)C/C=C/C(=O)Nc1ccc2nccc(Oc3ccc(C(=O)Nc4ccccn4)cc3)c2c1`, the IC50 in [1] was 275 nM; in series [3], 7.2 nM. In series [2], the EC50 is 89 nM.
Turning to `CCN1CCN(CC#CC(=O)Nc2ccc3nccc(Oc4ccc(C(=O)Nc5ccccn5)cc4)c3c2)CC1`, the half-inhibitory concentration (IC50) in series [1] was 55 nM; in series [3], 2.5 nM. In series [2], this compound returned an EC50 of 18 nM. The Ratio IC50 in series [6] is 22.
In series [1], `C=CC(=O)Nc1ccc2ncnc(Nc3ccc(C(=O)Nc4ccccn4)cc3)c2c1` came in with an IC50 of 3.8 nM. Also, the EC50 in [3] stood at 18 nM.
Broadly, the ED50 is the midpoint of the dose-response relation. Lower therefore signals an effect at a small dose. In turn, `CC#CC(=O)N1CCC[C@H]1c1nc(-c2ccc(C(=O)Nc3ccccn3)cc2)c2c(N)nccn12` [ACALABRUTINIB] displayed an ED50 in [7] of 1.3 mg/kg. Besides, the IC50 in series [8] was above 1000 nM.
Consider `O=C(C#CCCN1CCOCC1)Nc1ccc2nccc(Oc3ccc(C(=O)Nc4ccccn4)cc3)c2c1`, for which the IC50 in series [1] stood at 81 nM; in series [3] it was 0.8 nM. The compound also returned an EC50 in [2] of 25 nM.
As to `COc1cc2nccc(Oc3ccc(C(=O)Nc4ccccn4)cc3)c2cc1NC(=O)C#CCN1CCOCC1`, the concentration for half-maximal inhibition (IC50) in series [1] is 24 nM; in [3], 0.47 nM. Besides, the EC50 came to 2.1 nM in series [2], 12 nM in series [4] and 1.5 nM in series [5].
In series [1], `C=CC(=O)Nc1ccc2ncnc(Oc3ccc(C(=O)Nc4ccccn4)cc3)c2c1` yielded an IC50 of 11 nM. In addition, in series [3], the EC50 came out at 7.2 nM. In addition, the inhibition result in series [9] is “Tde”.
For `COCC#CC(=O)Nc1ccc2nccc(Oc3ccc(C(=O)Nc4ccccn4)cc3)c2c1`, the values for the IC50 in series [1] and in series [3] were 16 nM and 0.15 nM, respectively. The same compound gave an EC50 in [2] of 7 nM.
The like results for `C=CC(=O)Nc1ccc2nccc(Oc3ccc(C(=O)Nc4ccccn4)cc3)c2c1` were, in that order, 159 nM, 3.5 nM and 112 nM.
With `CC#CC(=O)Nc1cc2c(Oc3ccc(C(=O)Nc4ccccn4)cc3)ccnc2cc1OC1CCOCC1`, the IC50 in series [1] is above 1000 nM; in series [3], 3.8 nM. The concentration giving a half-maximal response (EC50) in [2] turned out to be 152 nM.
Usually solubility (kinetic) stands for the concentration staying in solution when a stock, usually in DMSO, is diluted into the medium. With `O=C(C#CCO)Nc1ccc2nccc(Oc3ccc(C(=O)Nc4ccccn4)cc3)c2c1`, the half-inhibitory concentration (IC50) in [1] worked out at 6.3 nM; in series [3], 0.33 nM. A half-maximal effect in series [2] (EC50) was put at 28 nM. For the same compound, in series [6], the Ratio IC50 was determined as 19. In addition, the kinetic solubility in series [10] was below 1 µM.
For the compound `CC#CC(=O)Nc1ccc2nccc(Oc3ccc(C(=O)Nc4ccccn4)cc3)c2c1`, the figures for the IC50 in series [1] and in series [3] were above 1000 nM and 4.7 nM, respectively. In series [2], this compound came in with an EC50 of 152 nM.

(Values after ChEMBL document CHEMBL4725253, “Discovery of quinoline-based irreversible BTK inhibitors” (Bioorg Med Chem Lett, 2020).)
